# Experimental data published in patent US20200129528A1, “METHODS FOR TREATING BLOOD PRESSURE CONDITIONS USING AMINOSTEROL COMPOSITIONS” (Enterin, Inc., priority 2018, published 2020).
# Where “and” joins values, the source holds several entries; their conditions need not be identical. Equal entries are not always repeated. Entries after “also recorded” stand apart in the source; their conditions may differ. Where two headings read alike, the source gives them in different places.
# Experiments:
# [1] = parameters: species or system dogs; settings: dog, in vivo
# [2] = parameters: species or system rats; settings: rat, in vivo
# [3] = tested on: patients with PD and constipation; assay: Sleep diary in Stage 2: total sleep time, arm or leg thrashing (RBD); format: in vivo, human; settings: baseline to maximal dose
# Experimental: FIG. 3 is a chart of total sleep time in relation to squalamine dose. Total sleep time was obtained from the sleep diary by subtracting awake time during the night from total time spent in bed. Total sleep time per night was logged for each patient at baseline, each dosing period and at washout, and the means were determined. The light grey bar represents the baseline value for each cohort at a given dose level and the dark grey bar represents the value for the same cohort at the stated dose of squalamine (ENT-01; Kenterin™). The number of patients represented at each value are: Baseline, 33; 75 mg, 21; 100 mg, 28; 125 mg, 18; 150 mg, 15; 175 mg, 12; 200 mg, 7; 225 mg, 3; 250 mg, 2; washout, 33. P values were as follows: 75 mg, p=0.4; 100 mg, p=0.1; 125 mg, p=0.3; 150 mg, p=0.07; 175 mg, p=0.03; 200 mg, p=0.3; 225 mg, p=0.5; 250 mg, p=0.3; wash-out, p=0.04 (paired t test).
# (5) Sleep Diary (participants completed a sleep diary on a daily basis throughout the study. The diaries included time into bed and estimated time to sleep as well as wake time and duration during the night.); […]
# [4] = tested on: patients with PD and constipation; assay: Phase 2 trial Stage 2: bowel function with daily oral dosing escalated to a fixed dose; format: in vivo, human
# Experimental: Following successful screening, all subjects underwent a 14-day run-in period where the degree of constipation was assessed through a validated daily log (Zinsmeister et al. 2013) establishing baseline CSBMs/week. Subjects with an average of <3 CSBMs/week proceeded to dosing.
# In Stage 2, 34 patients were evaluated. […] This dose was then maintained (“fixed dose”) fir an additional 3-5 days.
# The primary efficacy outcome variable was whether or not a subject was a “success” or “failure”. This is an endpoint based on subject diary entries for the “fixed dose” period prior to the endpoint assessment defined as average complete stool frequency increase by 1 or more over baseline, or 3 or more complete spontaneous stools/week. The subject was deemed a “success” if s/he met one or more of the criteria listed above, otherwise the subject was deemed a “failure”. The primary analysis was based on all subjects with a baseline assessment and an assessment at the end of the “fixed-dose” period and was a comparison of the proportion of successes with 0.10 (the null hypothesis corresponding to no treatment effect).
# The proportion of subjects for whom the drug was a success was estimated with a binomial point estimate and corresponding 95% confidence interval. A secondary analysis compared the proportions of subjects who are deemed a success at the end of the randomized fixed-dose period between those randomized to the squalamine (ENT-01) arm and those randomized to the placebo arm. A Fisher's exact test was used to compare the proportions of subjects who were deemed a success at the end of randomization period between the two randomized arms
# [5] = tested on: patients with PD and constipation; assay: Systolic blood pressure in Stage 2 of the clinical study; format: in vivo, human; settings: for change of blood pressure in subjects with high blood pressure / change of blood pressure in subjects with low blood pressure: Stage 2, post medication / fixed dose versus baseline
# Text: Subjects in Stage 2 of the clinical study described in Example 1 had their systolic blood pressure measured at various points during the clinical study. […]
# [6] = tested on: patients with PD and constipation; assay: Circadian rhythm of wrist skin temperature; format: in vivo, human; settings: for circadian rhythm of wrist skin temperature (IS, RA, CFI, IV): 12 evaluable patients, fixed dose versus baseline
# Experimental: (6) I-Button Temperature Assessment. The 1-Button is a small, rugged self-sufficient system that measures temperature and records the results in a protected memory section. The Thermochron I-Button DS1921H (Maxim Integrated, Dallas, Tex.) was used for skin temperature measurement. I-Buttons were programmed to sample every 10 mins., and attached to a double-sided cotton sport wrist band using Velcro, with the sensor face of the I-Button placed over the inside of the wrist, on the radial artery of the dominant hand. Subjects removed and replaced the data logger when necessary (i.e., to have a bath or shower). The value of skin temperature assessment in sleep research is that the endogenous skin warming resulting from increased skin blood flow is functionally linked to sleep propensity. From the collected data, the mesor, amplitude, acrophase (time of peak temperature), Rayleight test (an index of interdaily stability), mean waveforms are calculated.);
# Assessments were made at baseline and at the end of the fixed dose and washout periods. Circadian system status was evaluated by continuously monitoring wrist skin temperature (Thermochron iButton DS1921H; Maxim, Dallas) following published procedures (Sarabia et al. 2008).
# Circadian rhythm of skin temperature was evaluable in 12 patients (i.e., those who had recordings that extended from baseline through washout). Circadian system functionality was evaluated by continuously monitoring wrist skin temperature using a temperature sensor (Thermochron iButton DS1921H; Maxim, Dallas, Tex.) (Sarabia et al. 2008). […]
# Briefly, this analysis includes the following parameters: (i) the inter-daily stability (the constancy of 24-hour rhythmic pattern over days, IS); (ii) intra-daily variability (rhythm fragmentation, IV); (iii) average of 10-minute intervals for the 10 hours with the minimum temperature (L10); (iv) average of 10-minute intervals for the 5 hours with the maximum temperature ([…]) and the relative amplitude (RA), which was determined by the difference between M5 and L10, divided by the sum of both. […]
# [7] = Stage 2, individual subjects, one line per subject
compound,measurement,setting,value
"CC(C)[C@@H](CC[C@@H](C)[C@H]1CC[C@H]2[C@@H]3[C@H](O)C[C@H]4C[C@@H](NCCCNCCCCN)CC[C@]4(C)[C@H]3CC[C@]12C)OS(=O)(=O)O (single isomer, unassigned) [ENT-01, squalamine]",oral bioavailability,[1],limited bioavailability
same,oral bioavailability,[2],limited bioavailability
same,absorption from the intestine,[2]; po,low
same,improvement of arm or leg thrashing frequency,[3],100%
same,"decrease of rescue medication use, baseline to fixed dose","[4]; Stage 2, 1.8/week to 0.3",83%
same,"improvement of SBM, baseline to fixed dose","[4]; Stage 2, 2.6 to 4.5",73%
same,Ease of passage (Ease of evacuation scale 1-7),"[4]; Stage 2, at fixed dose, mean (SD), baseline 3.2, listed as aminosterol",3.7
same,BP at FD-V4 pre dose,[5]; [7],122 and 147 and 144 and 154 and 115 and 110 (2×) and 138 and 130 and 121 and 113
same,BP at V4 + 2 hrs post dose,[5]; [7],113 and 163 and 138 and 105 and 11 and 132 (2×) and 126 and 131 and 115
same,"final BP- v3, mean","[5]; Stage 2, mean of series, initial mean 133.4219, p=0.011638",126.3
same,change of blood pressure in subjects with high blood pressure,[5],decreased blood pressure
same,change of blood pressure in subjects with low blood pressure,[5],increased blood pressure
same,change of blood pressure in subjects with high blood pressure,[5]; listed as aminosterol,lower blood pressure
same,change of blood pressure in subjects with low blood pressure,[5]; listed as aminosterol,higher blood pressure
same,"circadian rhythm of wrist skin temperature (IS, RA, CFI, IV)",[6],significant positive impact; also recorded: improved all markers of healthy circadian function
same,"circadian rhythm of wrist skin temperature (IS, RA, CFI, IV)",[6]; listed as Aminosterol,improved all markers of healthy circadian function
same,circadian rhythm parameters during wash-out,"[6]; wash-out period (IS, CFI)",persisted for several of these circadian parameters
